Species: Rattus norvegicus
Assay: DrugMatrix - Regimen: Daily Repeat
Format: toxicity, organism-based, Sprague-Dawley
Set-up: regimen Daily Repeat, gender Male, age 6-8 weeks
Conditions: in vivo, po, route oral GAVAGE, vehicle .5 % CMC; for ABSOLUTE BASOPHIL / ABSOLUTE EOSINOPHIL / ABSOLUTE LYMPHOCYTE / ABSOLUTE MONOCYTE / ABSOLUTE SEGMENTED NEUTROPHIL / BASOPHIL / EOSINOPHIL / ERYTHROCYTE COUNT / HEMATOCRIT / HEMOGLOBIN / LEUKOCYTE COUNT / LYMPHOCYTE / MEAN CORPUSCULAR HEMOGLOBIN / MEAN CORPUSCULAR HEMOGLOBIN CONCENTRATION / MEAN CORPUSCULAR VOLUME / MONOCYTE / NEUTROPHIL / NUCLEATED RED BLOOD CELLS / PLATELET COUNT: tissue Blood; for ALANINE AMINOTRANSFERASE / ALBUMIN / ALKALINE PHOSPHATASE / ASPARTATE AMINOTRANSFERASE / BLOOD UREA NITROGEN / CARBON DIOXIDE / CHLORIDE / CHOLESTEROL / CREATINE PHOSPHOKINASE / CREATININE / GLUCOSE / LACTATE DEHYDROGENASE / LIPASE / PHOSPHORUS / POTASSIUM / SODIUM / TOTAL BILIRUBIN / TOTAL PROTEIN / URIC ACID: tissue Plasma
[1] = 100 mg/kg, 120 h, dose level Low, time 5 day
[2] = 1500 mg/kg, 72 h, dose level High, time 3 day
[3] = 1500 mg/kg, 120 h, dose level High, time 5 day

Compound: CO[C@H]1/C=C/O[C@@]2(C)Oc3c(C)c(O)c4c(c3C2=O)C2=NC3(CCN(CC(C)C)CC3)NC2=C(NC(=O)/C(C)=C\C=C\[C@H](C)[C@H](O)[C@@H](C)[C@@H](O)[C@@H](C)[C@H](OC(C)=O)[C@@H]1C)C4=O [RIFABUTIN]
- ABSOLUTE BASOPHIL [1]: 0 CELLS/uL
- ABSOLUTE EOSINOPHIL [1]: 0 CELLS/uL
- ABSOLUTE LYMPHOCYTE [1]: 10855 CELLS/uL
- ABSOLUTE MONOCYTE [1]: 0 CELLS/uL
- ABSOLUTE SEGMENTED NEUTROPHIL [1]: 1111.67 CELLS/uL
- BASOPHIL [1]: 0%
- EOSINOPHIL [1]: 0%
- ERYTHROCYTE COUNT [1]: 5.53 x10E6/uL
- HEMATOCRIT [1]: 35%
- HEMOGLOBIN [1]: 13.9 G/DL
- LEUKOCYTE COUNT [1]: 11.97 x10E3/uL
- LYMPHOCYTE [1]: 90.67%
- MEAN CORPUSCULAR HEMOGLOBIN [1]: 25.2 pg
- MEAN CORPUSCULAR HEMOGLOBIN CONCENTRATION [1]: 39.77 G/DL
- MEAN CORPUSCULAR VOLUME [1]: 63.37 fL
- MONOCYTE [1]: 0%
- NEUTROPHIL [1]: 9.33%
- NUCLEATED RED BLOOD CELLS [1]: 0 /100WBC
- PLATELET COUNT [1]: 1189 x10E3/uL
- ALANINE AMINOTRANSFERASE [1]: 54.33 u/L
- ALBUMIN [1]: 4.2 G/DL
- ALKALINE PHOSPHATASE [1]: 319 u/L
- ASPARTATE AMINOTRANSFERASE [1]: 78.33 u/L
- BLOOD UREA NITROGEN [1]: 16.67 mg/dL
- CARBON DIOXIDE [1]: 24.67 mmol/L
- CHLORIDE [1]: 102.33 MEQ/L
- CHOLESTEROL [1]: 81.33 mg/dL
- CREATINE PHOSPHOKINASE [1]: 352 u/L
- CREATININE [1]: 0.18 mg/dL
- GLUCOSE [1]: 154.67 mg/dL
- LACTATE DEHYDROGENASE [1]: 179 u/L
- LIPASE [1]: 9.33 u/L
- PHOSPHORUS [1]: 12.83 mg/dL
- POTASSIUM [1]: 6.38 MEQ/L
- SODIUM [1]: 144.7 MEQ/L
- TOTAL BILIRUBIN [1]: 0.23 mg/dL
- TOTAL PROTEIN [1]: 6 G/DL
- URIC ACID [1]: 1.6 mg/dL
- ABSOLUTE BASOPHIL [2]: 0 CELLS/uL
- ABSOLUTE EOSINOPHIL [2]: 0 CELLS/uL
- ABSOLUTE LYMPHOCYTE [2]: 11965.67 CELLS/uL
- ABSOLUTE MONOCYTE [2]: 420.67 CELLS/uL
- ABSOLUTE SEGMENTED NEUTROPHIL [2]: 2847 CELLS/uL
- BASOPHIL [2]: 0%
- EOSINOPHIL [2]: 0%
- ERYTHROCYTE COUNT [2]: 6.58 x10E6/uL
- HEMATOCRIT [2]: 40.53%
- HEMOGLOBIN [2]: 15.87 G/DL
- LEUKOCYTE COUNT [2]: 15.23 x10E3/uL
- LYMPHOCYTE [2]: 77.33%
- MEAN CORPUSCULAR HEMOGLOBIN [2]: 24.13 pg
- MEAN CORPUSCULAR HEMOGLOBIN CONCENTRATION [2]: 39.17 G/DL
- MEAN CORPUSCULAR VOLUME [2]: 61.6 fL
- MONOCYTE [2]: 2.67%
- NEUTROPHIL [2]: 20%
- NUCLEATED RED BLOOD CELLS [2]: 0 /100WBC
- PLATELET COUNT [2]: 1375.67 x10E3/uL
- ALANINE AMINOTRANSFERASE [2]: 80 u/L
- ALBUMIN [2]: 4.43 G/DL
- ALKALINE PHOSPHATASE [2]: 350.33 u/L
- ASPARTATE AMINOTRANSFERASE [2]: 113.67 u/L
- BLOOD UREA NITROGEN [2]: 14 mg/dL
- CARBON DIOXIDE [2]: 31 mmol/L
- CHLORIDE [2]: 96.33 MEQ/L
- CHOLESTEROL [2]: 148.67 mg/dL
- CREATINE PHOSPHOKINASE [2]: 217 u/L
- CREATININE [2]: 0.21 mg/dL
- GLUCOSE [2]: 160 mg/dL
- LACTATE DEHYDROGENASE [2]: 259 u/L
- LIPASE [2]: 11 u/L
- PHOSPHORUS [2]: 12.37 mg/dL
- POTASSIUM [2]: 5.97 MEQ/L
- SODIUM [2]: 145.43 MEQ/L
- TOTAL BILIRUBIN [2]: 0.47 mg/dL
- TOTAL PROTEIN [2]: 6.3 G/DL
- URIC ACID [2]: 1.7 mg/dL
- ABSOLUTE BASOPHIL [3]: 0 CELLS/uL
- ABSOLUTE EOSINOPHIL [3]: 0 CELLS/uL
- ABSOLUTE LYMPHOCYTE [3]: 11388 CELLS/uL
- ABSOLUTE MONOCYTE [3]: 273 CELLS/uL
- ABSOLUTE SEGMENTED NEUTROPHIL [3]: 2639 CELLS/uL
- BASOPHIL [3]: 0%
- EOSINOPHIL [3]: 0%
- ERYTHROCYTE COUNT [3]: 6.24 x10E6/uL
- HEMATOCRIT [3]: 38.2%
- HEMOGLOBIN [3]: 15.25 G/DL
- LEUKOCYTE COUNT [3]: 14.3 x10E3/uL
- LYMPHOCYTE [3]: 79%
- MEAN CORPUSCULAR HEMOGLOBIN [3]: 24.5 pg
- MEAN CORPUSCULAR HEMOGLOBIN CONCENTRATION [3]: 39.9 G/DL
- MEAN CORPUSCULAR VOLUME [3]: 61.45 fL
- MONOCYTE [3]: 2%
- NEUTROPHIL [3]: 19%
- NUCLEATED RED BLOOD CELLS [3]: 0 /100WBC
- PLATELET COUNT [3]: 1196.5 x10E3/uL
- ALANINE AMINOTRANSFERASE [3]: 114 u/L
- ALBUMIN [3]: 3.85 G/DL
- ALKALINE PHOSPHATASE [3]: 310.5 u/L
- ASPARTATE AMINOTRANSFERASE [3]: 198.5 u/L
- BLOOD UREA NITROGEN [3]: 19 mg/dL
- CARBON DIOXIDE [3]: 24.5 mmol/L
- CHLORIDE [3]: 97.5 MEQ/L
- CHOLESTEROL [3]: 104 mg/dL
- CREATINE PHOSPHOKINASE [3]: 397.5 u/L
- CREATININE [3]: 0.18 mg/dL
- GLUCOSE [3]: 120.5 mg/dL
- LACTATE DEHYDROGENASE [3]: 645 u/L
- LIPASE [3]: 12.5 u/L
- PHOSPHORUS [3]: 11 mg/dL
- POTASSIUM [3]: 5.77 MEQ/L
- SODIUM [3]: 142.7 MEQ/L
- TOTAL BILIRUBIN [3]: 0.6 mg/dL
- TOTAL PROTEIN [3]: 5.65 G/DL
- URIC ACID [3]: 1.35 mg/dL

From ChEMBL document CHEMBL3885881, “DrugMatrix”
